Measured values reported in ChEMBL document CHEMBL1156624, “A click chemistry approach to pleuromutilin conjugates with nucleosides or acyclic nucleoside derivatives and their binding to the bacterial ribosome” (J Med Chem, 2008).

Legend:
Escherichia coli [1] = experiment: Binding affinity to Escherichia coli MRE600 ribosome assessed as protection against N1-cyclohexyl-N3-(2-morpholino)ethylcarbodiimide p-toluenesulfonate-induced modifications at nucleotide U2506 in peptidyl transferase center of 23S rRNA at 50 uM by chemical footprinting relative to control
Escherichia coli [2] = experiment: Binding affinity to Escherichia coli MRE600 ribosome assessed as protection against N1-cyclohexyl-N3-(2-morpholino)ethylcarbodiimide p-toluenesulfonate-induced modifications at nucleotide U2585 in peptidyl transferase center of 23S rRNA at 50 uM by chemical footprinting relative to control
Escherichia coli [3] = experiment: Binding affinity to Escherichia coli MRE600 ribosome assessed as protection against N1-cyclohexyl-N3-(2-morpholino)ethylcarbodiimide p-toluenesulfonate-induced modifications at nucleotide U2585 in peptidyl transferase center of 23S rRNA at 5 uM by chemical footprinting relative to control
Escherichia coli [4] = experiment: Binding affinity to Escherichia coli MRE600 ribosome assessed as protection against N1-cyclohexyl-N3-(2-morpholino)ethylcarbodiimide p-toluenesulfonate-induced modifications at nucleotide U2506 in peptidyl transferase center of 23S rRNA at 5 uM by chemical footprinting relative to control

SMILES | Activity (Escherichia coli [1]) | Activity (Escherichia coli [2]) | Activity (Escherichia coli [3]) | Activity (Escherichia coli [4])
C=C[C@]1(C)C[C@@H](OC(=O)Cn2cc(CCCn3cc(C)c(=O)[nH]c3=O)nn2)[C@]2(C)[C@H](C)CC[C@]3(CCC(=O)[C@@H]32)[C@@H](C)[C@@H]1O | 0.08 | 0.24 | 0.46 | 0.41
C=C[C@]1(C)C[C@@H](OC(=O)Cn2cc(Cc3ccccc3)nn2)[C@]2(C)[C@H](C)CC[C@]3(CCC(=O)[C@@H]32)[C@@H](C)[C@@H]1O | 0.06 | 0.29 | 0.54 | 0.31
C=C[C@]1(C)C[C@@H](OC(=O)Cn2cc(Cn3cc(C)c(=O)[nH]c3=O)nn2)[C@]2(C)[C@H](C)CC[C@]3(CCC(=O)[C@@H]32)[C@@H](C)[C@@H]1O | 0.18 | 0.37 | 0.75 | 0.69
C=C[C@]1(C)C[C@@H](OC(=O)CSCCN(CC)CC)[C@]2(C)[C@H](C)CC[C@]3(CCC(=O)[C@H]32)[C@@H](C)[C@@H]1O | 0.05 | 0.58 | 0.59 | 0.1
C=C[C@]1(C)C[C@@H](OC(=O)Cn2cc(COC[C@H]3O[C@@H](n4cc(C)c(=O)[nH]c4=O)C[C@@H]3O)nn2)[C@]2(C)[C@H](C)CC[C@]3(CCC(=O)[C@@H]32)[C@@H](C)[C@@H]1O | 0.19 | 0.36 | 0.93 | 0.62
C=C[C@]1(C)C[C@@H](OC(=O)Cn2cc(C[C@@H](O)[C@@H]3O[C@H](n4cc(C)c(=O)[nH]c4=O)C[C@H]3O)nn2)[C@]2(C)[C@H](C)CC[C@]3(CCC(=O)[C@@H]32)[C@@H](C)[C@@H]1O | 0.09 | 0.29 | 0.59 | 0.32
C=C[C@]1(C)C[C@@H](OC(=O)Cn2cc(CCc3ccccc3)nn2)[C@]2(C)[C@H](C)CC[C@]3(CCC(=O)[C@@H]32)[C@@H](C)[C@@H]1O | 0.05 | 0.35 | 0.61 | 0.29
C=C[C@]1(C)C[C@@H](OC(=O)Cn2cc(Cn3cnc4c(N)ncnc43)nn2)[C@]2(C)[C@H](C)CC[C@]3(CCC(=O)[C@@H]32)[C@@H](C)[C@@H]1O | 0.19 | 0.37 | 0.73 | 0.73
C=C[C@]1(C)C[C@@H](OC(=O)Cn2cc([C@]3(O)[C@@H](CO)O[C@@H](n4ccc(=O)[nH]c4=O)[C@@H]3O)nn2)[C@]2(C)[C@H](C)CC[C@]3(CCC(=O)[C@@H]32)[C@@H](C)[C@@H]1O | 0.03 | 0.18 | 0.45 | 0.24
C=C[C@]1(C)C[C@@H](OC(=O)Cn2cc(CCn3cc(C)c(=O)[nH]c3=O)nn2)[C@]2(C)[C@H](C)CC[C@]3(CCC(=O)[C@@H]32)[C@@H](C)[C@@H]1O | 0.1 | 0.36 | 0.57 | 0.53
C=C[C@]1(C)C[C@@H](OC(=O)Cn2cc([C@]3(O)[C@H](O)[C@@H](CO)O[C@H]3n3ccc(=O)[nH]c3=O)nn2)[C@]2(C)[C@H](C)CC[C@]3(CCC(=O)[C@@H]32)[C@@H](C)[C@@H]1O | 0.18 | 0.35 | 0.74 | 0.61
C=C[C@]1(C)C[C@@H](OC(=O)Cn2cc(Cn3ccc(N)nc3=O)nn2)[C@]2(C)[C@H](C)CC[C@]3(CCC(=O)[C@@H]32)[C@@H](C)[C@@H]1O | 0.16 | 0.38 | 0.69 | 0.61
C=C[C@]1(C)C[C@@H](OC(=O)Cn2cc(CO[C@@H]3[C@H](O)[C@@H](CO)O[C@H]3n3ccc(=O)[nH]c3=O)nn2)[C@]2(C)[C@H](C)CC[C@]3(CCC(=O)[C@@H]32)[C@@H](C)[C@@H]1O | 0.14 | 0.29 | 0.72 | 0.54
C=C[C@]1(C)C[C@@H](OC(=O)Cn2cc(CCn3cnc4c(N)ncnc43)nn2)[C@]2(C)[C@H](C)CC[C@]3(CCC(=O)[C@@H]32)[C@@H](C)[C@@H]1O | 0.1 | 0.26 | 0.4 | 0.37
C=C[C@]1(C)C[C@@H](OC(=O)Cn2cc(CCCn3cnc4c(N)ncnc43)nn2)[C@]2(C)[C@H](C)CC[C@]3(CCC(=O)[C@@H]32)[C@@H](C)[C@@H]1O | 0.06 | 0.22 | 0.33 | 0.17
C=C[C@]1(C)C[C@@H](OC(=O)Cn2cc([C@@H](O)[C@@H]3O[C@H](n4cc(C)c(=O)[nH]c4=O)C[C@H]3O)nn2)[C@]2(C)[C@H](C)CC[C@]3(CCC(=O)[C@@H]32)[C@@H](C)[C@@H]1O (mixture of isomers) | 0.1 | 0.25 | 0.5 | 0.38
C=C[C@]1(C)C[C@@H](OC(=O)CO)[C@]2(C)[C@H](C)CC[C@]3(CCC(=O)[C@@H]32)[C@@H](C)[C@@H]1O | 0.1 | 0.98 | 0.99 | 0.42
C=C[C@]1(C)C[C@@H](OC(=O)Cn2cc(CCCn3ccc(N)nc3=O)nn2)[C@]2(C)[C@H](C)CC[C@]3(CCC(=O)[C@@H]32)[C@@H](C)[C@@H]1O | 0.05 | 0.26 | 0.56 | 0.27
C=C[C@]1(C)C[C@@H](OC(=O)Cn2cc(CO[C@@H]3C[C@@H](n4cc(C)c(=O)[nH]c4=O)O[C@H]3CO)nn2)[C@]2(C)[C@H](C)CC[C@]3(CCC(=O)[C@@H]32)[C@@H](C)[C@@H]1O | 0.12 | 0.41 | 0.73 | 0.44
C=C[C@]1(C)C[C@@H](OC(=O)Cn2cc(C[C@H](O)[C@@H]3O[C@H](n4cc(C)c(=O)[nH]c4=O)C[C@H]3O)nn2)[C@]2(C)[C@H](C)CC[C@]3(CCC(=O)[C@@H]32)[C@@H](C)[C@@H]1O | 0.09 | 0.35 | 0.69 | 0.33
C=C[C@]1(C)C[C@@H](OC(=O)Cn2cc(CCCc3ccccc3)nn2)[C@]2(C)[C@H](C)CC[C@]3(CCC(=O)[C@@H]32)[C@@H](C)[C@@H]1O | 0.08 | 0.41 | 0.48 | 0.21
